Test results published in paper PMC3856494, “Radiofluorination and biological evaluation of N-aryl-oxadiazolyl-propionamides as potential radioligands for PET imaging of cannabinoid CB2 receptors” (Organic and Medicinal Chemistry Letters, 2013).
Where two headings read alike, the source gives them in different places.

Key:
human CB2R = human CB2R (Homo sapiens, UniProt P34972); experiment: In vitro CB receptor affinity assay, displacement of [3H]CP55,940, CHO cells transfected with human CB2R; assay type: binding
Method: (§1) For binding experiments, Chinese hamster ovary (CHO) cell lines stably transfected with human CB1R human and CB2R were used according to the procedures previously described. […] The binding experiments were performed in triplicates, and data were given as mean values from independent experiments.

[1] = HPLC-based logD determination; assay type: physicochemical; conditions: RP-HPLC, reference compounds, n = 3 to 6
Method: The distribution coefficients of [^18F]1 and [^18F]2 were also calculated from RP-HPLC retention times in three different systems: (1) isocratic elution (60% MeCN/20 mM NH4OAc at a flow rate of 1 mL/min) and (2) gradient elution (starting from 10% MeCN/20 mM NH4OAc aq. for 10 min with a gradient to 90% MeCN/20 mM NH4OAc aq. over 30 min at a flow rate of 1 mL/min) on a Reprosil-Pur C18-AQ column (5 μm, 250 × 4.6 mm, Dr. Maisch HPLC GmbH, Ammerbruch-Entringen, Germany), and (3) isocratic elution (52.5% MeCN/20 mM NH4OAc at a flow rate of 1 mL/min) on a Prodigy 5 μm C8 (250 × 4 mm; Phenomenex Ltd, Aschaffenburg, Germany) using the reference compounds following the protocol according to the EU guideline 67/548/EWG [44].

human CB1R = human CB1R (Homo sapiens, UniProt P21554); experiment: In vitro CB receptor affinity assay, displacement of [3H]CP55,940, CHO cells transfected with human CB1R; assay type: binding; conditions: [3H]CP55,940 displacement, hCB1R CHO cells; read-out: Ki CB1R
Method: as §1

Chain of human CB2R (P34972 whole entry): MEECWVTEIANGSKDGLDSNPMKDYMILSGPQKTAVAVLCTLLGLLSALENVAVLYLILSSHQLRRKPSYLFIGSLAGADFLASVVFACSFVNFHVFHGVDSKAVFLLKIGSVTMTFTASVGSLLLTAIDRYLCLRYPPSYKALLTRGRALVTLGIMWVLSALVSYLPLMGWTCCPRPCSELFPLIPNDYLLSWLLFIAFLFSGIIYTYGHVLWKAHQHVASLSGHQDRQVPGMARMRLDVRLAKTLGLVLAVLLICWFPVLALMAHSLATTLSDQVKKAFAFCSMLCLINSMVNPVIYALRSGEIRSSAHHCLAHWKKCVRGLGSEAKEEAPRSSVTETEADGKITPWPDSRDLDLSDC
Chain of human CB1R (P21554 whole entry): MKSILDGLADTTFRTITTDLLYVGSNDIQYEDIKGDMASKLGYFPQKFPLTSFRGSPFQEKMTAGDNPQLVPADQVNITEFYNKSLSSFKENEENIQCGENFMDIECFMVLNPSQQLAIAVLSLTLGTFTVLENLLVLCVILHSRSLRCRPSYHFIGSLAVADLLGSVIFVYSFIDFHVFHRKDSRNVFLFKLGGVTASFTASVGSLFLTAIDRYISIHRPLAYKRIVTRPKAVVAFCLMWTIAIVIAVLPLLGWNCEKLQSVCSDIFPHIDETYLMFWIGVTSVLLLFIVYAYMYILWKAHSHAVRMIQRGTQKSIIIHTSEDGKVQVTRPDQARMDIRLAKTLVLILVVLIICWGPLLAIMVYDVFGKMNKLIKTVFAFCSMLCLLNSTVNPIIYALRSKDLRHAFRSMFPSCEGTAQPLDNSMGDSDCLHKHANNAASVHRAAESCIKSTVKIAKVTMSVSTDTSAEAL

Ki (human CB2R; [3H]CP55,940 displacement, hCB2R CHO cells, read-out: Ki CB2R) [nM] | melting point [°C] | SMILES | Ki (human CB2R) [nM] | chromatographic logD ([1]; gradient 10% to 90% MeCN/20 mM NH4OAc, read-out: logD Reposil-Pur C18-AQ Gradient) | chromatographic logD ([1]; isocratic 52.5% MeCN/20 mM NH4OAc, read-out: logD Prodigy 5 μ C8 Isocratic) | chromatographic logD ([1]; isocratic 60% MeCN/20 mM NH4OAc, read-out: logD Reposil-Pur C18-AQ Isocratic) | Ki (human CB1R) [nM]
– | – | CCn1c2ccccc2c2cc(NC(=O)CCc3nc(-c4ccc(F)cc4Br)no3)ccc21 [Compound 2, 3-[3-(2-Bromo-4-fluorophenyl)-1,2,4-oxadiazol-5-yl]-N-(9-ethyl-9H-carbazol-3-yl)propanamide] | 4.27 ± 3.03 | 4.35 ± 0.11 | 4.4 ± 0.35 | 4.87 ± 0.36 | > 1000
> 1000 | 104 | O=C(O)CCc1nc(-c2ccc(F)cc2Br)no1 [Compound 10, 3-(3-(2-Bromo-4-fluorophenyl)-1,2,4-oxadiazol-5-yl)propanoic acid] | – | – | – | – | > 1000
